Holding throughout (format): cell-based, mouse
Data set [1] has as its system B16F10 melanoma cells. Nature of the data set: Cell viability (MTT assay). The following applies: for cell viability (MTT): B16F10 melanoma cells; for toxicity (MTT): at the concentration contained in LOMIX and at all concentrations (0–50 μM). As for the experimental part: Mouse-derived B16F10 melanoma cells were incubated in the DMEM medium supplemented with 10% (v/v) FBS and 1% streptomycin–penicillin solution at 37 °C and 5% CO2. Sub-culture was conducted by detaching the cells with trypsin-EDTA after reaching 90% confluence.
The effects of LOMIX and each LO compound on cell survival were determined using the MTT assay. B16F10 melanoma cells (100 μL of 1.5 × 10^5 cells/mL) were seeded in a 96-well plate with 100 μL of the testing sample [LOMIX (0–200 μg/mL) or LO (0–50 μM)]. After 2 days, MTT solution (10 μL) was added to each well, and cells were incubated for an additional 3 h in the dark. The reaction was stopped by adding 100 μL of 10% SDS complemented with 0.01 M HCl. Moreover, 5000 cells/well of B16F10 melanoma cells were incubated in 96-well plates to check the cytotoxicity of LOMIX in the presence of α-MSH. The 10 μL of MTT solution was added to the cells incubated with the LOMIX (50 and 100 μg/mL) and α-MSH (100 nM) for 0, 24, and 48 h. Subsequently, the stopping solution (100 μL) (10% SDS solution with 0.01 M HCl) was added after 3 h incubation. The absorbance was measured at 570 nm using Synergy™ HTX (Biotek Instruments Inc., Winooski, VT, USA).
(In general: Tetrazolium assays rely on reduction of a dye to a coloured formazan, in cell work by metabolically active cells.)

Data set [2] concerns B16F10 melanoma cells. The data set is described as follows: Extracellular melanin secretion in α-MSH-stimulated cells. The conditions noted are these: 48 h; for melanin (pigment) secretion: 12.5, 25 and 50 μM; for secretion of melanin: 6.25, 12.5 and 25 μM, dose-dependent. As for the experimental part: (§1) B16F10 melanoma cells (1.5 × 10^5 cells/mL) were seeded in a 6-well plate and cultured overnight. Then, the culture media were replaced with phenol red-free media containing DMSO (vehicle) or α-MSH (melanogenesis inducer) for the identification of the color change caused by melanogenesis. The cells were treated with different concentrations of LOMIX (25, 50, and 100 μg/mL) or LO A, B (6.25, 12.5, and 25 μM), D, E, and F and G (12.5, 25, and 50 μM). Arbutin at 1 mM was used as a positive control. After 48 h of the incubation, the culture medium’s optical density was detected at 475 nm to measure the amount of extracellular melanin secretion. Meanwhile, the remaining cells were harvested with 1 mL cold PBS and lysed with a lysis buffer (50 mM Tris-HCl pH 7.5, 120 mM NaCl, 20 mM β-glycerophosphate pH 7.5, and 2% NP-40). After centrifuging at 12,000× g for 5 min., the cell pellets were dissolved in 10% DMSO in 1 M NaOH and incubated at 60 °C. The melanin contents were measured at 405 nm using a Synergy™ HTX microplate reader. All photos of melanin-secreted medium and intracellular melanin contents were collected.

The subject of the next data set is TYRP-1. The data set is described as follows: Real-time PCR, TYRP-1 mRNA. The following applies: 0–25 μM, co-treatment with 100 nM α-MSH, 24 h, B16F10 cells. As for the experimental part:
(§2) B16F10 cells (3 × 10^5 cells/mL) stimulated by 100 nM α-MSH were treated with LOMIX (0–100 μg/mL), LO A or B (0–25 μM), or arbutin 1 mM for 24 h. The cells were lysed with 300 μL of TRI Reagent® to extract total RNA. Then, 1 μg of total RNA with Reverse Transcriptase M-MuLV (Thermo Fisher Scientific, Waltham, MA, USA) was utilized to synthesize cDNA according to the manufacturer’s instructions. Real-time PCR was conducted, as previously described.
On the technique in general: Real-time PCR tracks product formation cycle by cycle.

Data set [3] concerns MITF. Nature of the data set: Immunoblotting, MITF protein. The following applies: 0–25 μM, 100 nM α-MSH, 24 h, B16F10 cell lysates, Western blotting. As for the experimental part: (§3) To induce melanogenesis, 3 × 10^5 B16F10 melanoma cells per mL were treated with 100 nM of α-MSH. Subsequently, 1 mM of arbutin or LO A or B (0–25 μM) was administered to the culture media for 24 h. The cells were then harvested with 1 mL of cold PBS and lysed with lysis buffer containing protease inhibitors (20 mM Tris-HCl pH 7.5, 2 mM EDTA, 20 mM NaF, 150 mM NaCl, 50 mM β-glycerol phosphate, and 2% NP-40 containing 2 μg/mL of leupeptin, pepstatin, and aprotinin). The whole cell lysates were centrifuged at 12,000× g for 5 min to purify the intracellular protein. SDS-polyacrylamide gel electrophoresis (Bio-Rad, Hercules, CA, USA) was conducted to separate the equivalent protein contents according to size. The separated proteins were transferred to polyvinylidene fluoride membranes and blocked with 3% (w/v) bovine serum albumin (BSA) solution for at least 30 min at ambient temperature. They then were incubated overnight with primary antibodies (1:2500 dilution) at 4 °C. After three 10-min washes with 0.1% (w/v) Tween-20, the membranes were probed with HRP-conjugated secondary antibodies (1:2500 dilution). The signals of each protein sample were detected with enhanced chemiluminescence reagents.
(In general: Immunoblotting shows a protein as a band on a membrane.)

Data set [4] relates to MITF. Nature of the data set: Real-time PCR, MITF mRNA. The following applies: 0–25 μM, co-treatment with 100 nM α-MSH, 24 h, B16F10 cells. As for the experimental part: as §2
A further data set concerns PKA. Nature of the data set: Immunoblotting, phosphorylated PKA. The conditions noted are these: 0–25 μM, 100 nM α-MSH, 24 h, B16F10 cell lysates, Western blotting. As for the experimental part:
as §3

For a further data set, the system named is TYRP-2. Nature of the data set: Real-time PCR, TYRP-2 mRNA. The conditions noted are these: 0–25 μM, co-treatment with 100 nM α-MSH, 24 h, B16F10 cells. As for the experimental part:
as §2

Another data set relates to Tyrosinase. Nature of the data set: Real-time PCR, Tyrosinase mRNA. The following applies: 0–25 μM, co-treatment with 100 nM α-MSH, 24 h, B16F10 cells. The procedure: as §2
Data set [5] concerns B16F10 melanoma cells. Nature of the data set: Intracellular melanin content in α-MSH-stimulated cells. The following applies: for melanin synthesis (melanin contents): 6.25, 12.5 and 25 μM, α-MSH, 48 h, B16F10 cells; for suppression of the synthesis of melanin: 12.5 and 25 μM, B16F10 cell lines. The procedure:
as §1

The next data set relates to CREB. The data set is described as follows: Immunoblotting, phosphorylated CREB. The following applies: 0–25 μM, 100 nM α-MSH, 24 h, B16F10 cell lysates, Western blotting. As for the experimental part: as §3

This is an account of results in article PMC9820828, “Anti-Melanogenesis Effects of a Cyclic Peptide Derived from Flaxseed via Inhibition of CREB Pathway” (International Journal of Molecular Sciences, 2022).

As for “[1–8-NαC],[1-(Rs,Ss)-MetO]-linusorb A2 [LO3]”, in the data set with B16F10 melanoma cells [1] (50 μM, 48 h), the “cell viability (MTT)” value is reported as “not altered”. In addition, the “toxicity (MTT)” value in the data set on B16F10 melanoma cells [1] (B16F10 cells, 48 h) is listed as “did not show toxicity”. The “melanin (pigment) secretion” value with B16F10 melanoma cells [2] is “decreased”.

[1–9-NαC]-linusorb B2 [LO2]: in the data set with TYRP-1, the “expression of TYRP1 at mRNA level” value is on record as “downregulated”. For the same substance, in the data set with MITF [3], the “protein level of MITF” value was “decreased levels”. Also, the “expression of MITF at mRNA level” value with MITF [4] is reported as “downregulated”. In the data set with PKA, the “phosphorylation of PKA” value is listed as “not PKA”. Also, the secretion of melanin entry in the data set on B16F10 melanoma cells [2] is listed as “dramatically downregulated”. In the data set on TYRP-2, the “expression of TYRP-2 at mRNA level” value is on record as “suppressed”. The “expression of tyrosinase at mRNA level” value with Tyrosinase is “downregulated”. Moreover, in the data set with B16F10 melanoma cells [5], the “melanin synthesis (melanin contents)” value is listed as “decreased” and the “suppression of the synthesis of melanin” value is “up to 90%”. In addition, the “phosphorylation of CREB” value in the data set with CREB was “blocked”.

For the substance [1–9-NαC]-linusorb B3 [LO1], the “expression of TYRP1 at mRNA level” value with TYRP-1 was “effectively inhibited”. Moreover, in the data set on MITF [3], the “protein level of MITF” value was “significantly decreased”. Also, the “cell viability (MTT)” value in the data set with B16F10 melanoma cells [1] (25 μM, 48 h) is listed as “not altered”. In addition, the “cell survival (MTT)” value in the data set on B16F10 melanoma cells [1] (50 μM, B16F10 cells, 48 h) is recorded as “declined”. The toxicity result in the data set on B16F10 melanoma cells [1] (12.5 and 25 μM, B16F10 cell lines) is “without toxicity”. Further, in the data set on MITF [4], the “expression of MITF at mRNA level” value was “effectively inhibited”. Moreover, in the data set on PKA, the “phosphorylation of PKA” value is given as “suppressed”. The secretion of melanin entry in the data set on B16F10 melanoma cells [2] is reported as “dramatically downregulated”. The “expression of TYRP-2 at mRNA level” value with TYRP-2 is recorded as “suppressed”. The “expression of tyrosinase at mRNA level” value in the data set on Tyrosinase is “effectively inhibited”. In the data set on B16F10 melanoma cells [5], the “melanin synthesis (melanin contents)” value was “decreased” and the “suppression of the synthesis of melanin” value was “up to 90%”. Also, the “phosphorylation of CREB” value with CREB was “suppressed”.

Regarding “[1–8-NαC],[1-(Rs,Ss)-MetO]-linusorb B1 [LO4]”, in the data set on B16F10 melanoma cells [1] (50 μM, 48 h), the “cell viability (MTT)” value is given as “not altered”. For the same substance, in the data set with B16F10 melanoma cells [1] (B16F10 cells, 48 h), the “toxicity (MTT)” value is reported as “did not show toxicity”. Further, the “melanin (pigment) secretion” value in the data set with B16F10 melanoma cells [2] was “decreased”.
